Four compounds from US20030073218A1, “High affinity inhibitors for target validation and uses thereof” (Princeton University, priority 1999, published 2003) can be followed below.

Structures are written as SMILES. “Also recorded” adds a separate entry of the source. Where two headings read alike, the source gives them in different places.

The subject of experiment [1] is protein tyrosine kinase in murine lymphocyte cell lysate (CF). Put plainly: Screening of ATP analogs as kinase substrates in murine lymphocyte lysate (anti-phosphotyrosine immunoblot). Format: biochemical. As to conditions: 100 uM nucleotide triphosphate, 37° C., 5 min. The procedure: Screening of Nucleotide Analogs: To identify compounds that would not be accepted as substrates by any existing cellular kinase (53), a panel of synthetic A*TP analogs were screened in a murine lymphocyte lysate (CF) rich in protein tyrosine kinase (13). The assays were performed using spleenocytes (8-30 week old male and female C57/B6 mice from the Princeton University Animal Facility) which were isolated and washed in RPMI-1640 medium containing 5% Bovine Calf Serum (BCS), 1% Hepes and DNAseI (1 μg/ml). Red cells were lysed at 4° C. by treatment with 17 mM tris ammonium chloride pH 7.2. The cells were hypotonically lysed on ice for 10 min. In 1 mM Hepes pH 7.4, 5 mM MgCl2, leupeptin (10 μg/ml), aprotinin (10 μg/ml) and 100 uM PMSF according to the method of Fukazawa et. al. (51). After vortexing and centrifuigation at 500 xg, the supernatant was collected. Cells were stored at 4° C. for 20 min. To attenuate the basal protein phosphorylation level, after which the buffer was adjusted to 20 mM Hepes pH 7.4, 10 mM MgCl2 and 1 mM NaF. Sodium vanadate (100 uM) was then added to inhibit the activity of phosphotyrosine phosphatases.
Each nucleotide triphosphate was added to a final concentration of 100 uM to 5×10^6 cell equivalents and incubated at 37° C. for 5 min. after which 4X Laemmli gel loading buffer was added to the cell lysate to quench the reaction. Proteins were separated by 12.5% SDS-PAGE and transferred to Protran BA85 (Schleicher-Schuell). The blot was probed with the anti-phosphotyrosine monoclonal antibody 4G10 (Upstate Biotechnology) and the bound antibody was detected via enhanced chemiluminescence (cat. 34080, Pierce) following treatment with HRP- coupled goat-anti-mouse antibody (VWR cat. 7101332) according to the manufacturer's instructions.
The cell lysate used includes the protein tyrosine kinase Src, Fyn, Lck, Lyn, Yes, Fgr, Hck, Zap, Syk, Btk, Blk, and other protein tyrosine kinase present in B and T lymphocytes, macrophages, and follicular dendritic cells (13). Molecular size standards (in kilodaltons) are indicated.

Experiment [2] concerns the target T1, GST-XD4(V323A, I338A) (Rous sarcoma virus subgroup A, UniProt P00524, DEL77-225/I338A/V323A).
T1 construct: mutant of the v-Src catalytic domain, (the XD4 fragment) were made as glutathione S-transferase (GST) fusion proteins; made in house; host or cells: E. coli (DH5a), pGEX-KT
Format: biochemical. The procedure: (§1) Kinetic constants were determined by analysis of Lineweaver-Burk plots of the rate data (64).

Experiment [3] has as its target T1, GST-XD4(V323A, I338A). Nature of the experiment: Autophosphorylation with radiolabeled nucleotide (autoradiogram). Format: biochemical. The conditions noted are these: FIG. 5C lane 4. An excerpt:
(§2) It is even more significant that the new substrate, [γ-^32P] […] FIG. 5C is an autoradiogram showing [γ-^32P]

The subject of experiment [4] is wild-type cellular kinase in murine lymphocyte lysates. Put plainly: In vitro kinase reactions with radiolabeled nucleotide in murine lymphocyte lysates. As to conditions: 100 μM radiolabeled nucleotide, 37° C., 10 min. Format: biochemical. The procedure: For this it is preferably that no wild-type kinase, including ser/thr specific kinase (which carry out the bulk of cellular phosphorylation, as only 0.03% of all phosphoamino acids are tyrosine) (65), substantially accept the synthetic substrate. To establish that [γ-^32P]
These assays were performed in a manner similar to the procedure set forth in Example 2, with the exception of the use of radiolabeled [γ-^32P] […] Proteins were separate by 12.5% SDS-PAGE. The gel was soaked in 10% acetic acid, 10% isopropanol for 1 h. after which it was dried in a gel dryer and exposed to Biomax MS film (Kodak # 111-1681) for 1 h.

For experiment [5], the system named is GST-XD4(V323A, I338A). As to conditions: 100 μM analog, 10 μM [γ-32P] ATP.
The target of experiment [6] is T2, GST-XD4 (Rous sarcoma virus subgroup A, UniProt P00524, DEL77-225). Put plainly: biochemical. Format: biochemical. Also noted: mutant of the v-Src catalytic domain, (the XD4 fragment) were made as glutathione S-transferase (GST) fusion proteins; made in house; host or cells: E. coli (DH5a), pGEX-KT. Here is the method: as §1
In experiment [7] the target is T2, GST-XD4. Put plainly: Autophosphorylation with radiolabeled nucleotide (autoradiogram). Format: biochemical. The arrangement: mutant of the v-Src catalytic domain, (the XD4 fragment) were made as glutathione S-transferase (GST) fusion proteins; made in house; host or cells: E. coli (DH5a), pGEX-KT. As to conditions: GST-XD4, FIG. 5C lane 3.
Source text: as §2

A further experiment addresses T3, I338G v-Src (Rous sarcoma virus subgroup A, UniProt P00524, DEL77-225/I338G).
T3 construct: screened against the catalytic domain of the target kinase, I338G v-Src; made in house; host or cells: E. coli DH5a, pGEX-KT
Put plainly: biochemical. Format: biochemical.

A further experiment concerns the target T4, PKCd (Homo sapiens, UniProt Q05655).
T4 construct: 6-His; made in house; host or cells: Bac-to-Bac baculovirus expression system (pFastBac B vector)
Nature of the experiment: In Vitro Kinase Inhibition Assay. Format: biochemical. As to conditions: at concentrations up to 300 mM.

In another experiment the target is T5, PKA (Homo sapiens, UniProt P17612).
T5 construct: purchased Pierce
Put plainly: In Vitro Kinase Inhibition Assay. The conditions noted are these: at concentrations up to 300 mM. Format: biochemical. An excerpt: PKA was purchased (Pierce) and used without further purification.

The subject of experiment [8] is B cell receptor (BCR) mediated phosphorylation cascade in murine B cells. Nature of the experiment: Murine B Cell Assay (phosphotyrosine blot after anti-IgM stimulation). Format: cell-based. The arrangement: dose or concentration left out as unconfirmed. The conditions noted are these: 30 minutes, anti-IgM cross linked murine B cells. The procedure:
Murine B Cell Assay: Splenic lymphocytes were isolated from 6-20 week old Balb/c or C57/B6 mice. The cells were washed out of the spleen into RPMI media containing 1 mg/mL DNase in and the red blood cells were lysed in 17 mM tris-ammonium chloride, pH 7.2, Approximately 4×10^6 cells were incubated at 37° C. for 30 minutes with […] of 3 g or 2 in 1.1% DMSO. B cell stimulation was initiated by the addition of 2 mg of goat anti-mouse IgM (Jackson Immuno Research, cat# 115-005-075) and subsequent incubation for 5 minutes at 37(C. The cells were isolated by centrifugation (13,000 rpm, 2 min) and lysed (lysis buffer: 1% Triton X-100, 50 mM tris pH 7.4, 2 mM EDTA, 150 mM NaCl, […] PMSF, 2 mM sodium orthovanadate, 10 mg/mL leupeptin, 10 mg/mL apoprotin). The cellular debris was then pelleted at 13,000 rpm for 15 min. Cellular proteins were separated by 10% polyacrylamide gel electrophoresis and transferred to a nitrocellulose membrane by Western blotting. Phosphotyrosine containing proteins were visualized by immunoblotting with anti-phosphotyrosine antibody (Upstate Biotechnology, Inc.).

Experiment [9] concerns WT v-Src transformed NIH3T3 cells. Nature of the experiment: Inhibition of v-Src in NIH3T3 fibroblasts (phosphotyrosine blot). Format: cell-based, murine. As to conditions: 100 mM 3g, 12 hours. Here is the method:
Tyrosine phosphorylated proteins were visualized as in FIG. 20A.
Retroviral Infection of NIH 3T3 Fibroblasts: Genes encoding WT and I338G v-Src were transfected into a packaging cell line and NIH 3T3 fibroblasts were retrovirally infected using the pBabe retroviral vector and a puromycin ([…]) selectable marker as described (Shah, K., Liu, Y., Shokat, K. M., in preparation). WT and I338G v-Src transformed cells were cultured in DMEM/10% BCS containing […] puromycin).
After 12 hours, the cells were washed with PBS and lysed (lysis buffer: 1% Triton X-100, 50 mM tris pH 7.4, 2 mM EDTA, 150 mM NaCl, […], 2 mM sodium orthovanadate, 10 mg/mL leupeptin, 10 mg/mL apoprotin). The lysate was clarified by centrifugation at 13,000 rpm for 15 min. Lysate protein concentrations were normalized and equal volumes of the lysate were resolved electrophoretically and analyzed for phosphotyrosine content as described above.

The test system of experiment [10] is I338G v-Src transformed NIH3T3 fibroblasts. Nature of the experiment: Microscopy of cell morphology and polymerized actin. Format: cell-based, murine. As to conditions: 100 mM 3g, 48 hours. The procedure:
FIG. 21A show non-transformed NIH3T3 cells.
Microscopy: Non-transformed, WT v-Src transformed, and 1338G v-Src transformed NIH3T3 fibroblasts were grown in DMEM/10% BCS on tissue culture treated slides. V-Src expressing cells were treated with either 1.1% DMSO or […] 3g in 1.1% DMSO. After 48 hours cells were photographed at 400(magnification on an Nikon TMS light microscope. Immediately following light microscopy, the cells were fixed for 20 min in 3.7% formaldehyde/PBS and permeabilized for 60 sec in 0.2% Triton X-100(/PBS. Permeabilized cells were incubated with 200 ng/mL phalloidin-FITC/PBS for 20 min. Slides were rinsed with PBS and polymerized actin was visualized by fluorescence microscopy at 600( magnification on a Zeiss fluorescence microscope.

In the next experiment the target is T6, Cdc28-as1 · MBP-Clb2 (Saccharomyces cerevisiae, UniProt P00546, F88G).
T6 construct: made in house; host or cells: Sf9 insect cells, baculovirus, co-infected with Cak1-HA3 (Cdc28-as1-His6); bacteria (MBP-Clb2)
T6 sequence (P00546 whole entry F88G): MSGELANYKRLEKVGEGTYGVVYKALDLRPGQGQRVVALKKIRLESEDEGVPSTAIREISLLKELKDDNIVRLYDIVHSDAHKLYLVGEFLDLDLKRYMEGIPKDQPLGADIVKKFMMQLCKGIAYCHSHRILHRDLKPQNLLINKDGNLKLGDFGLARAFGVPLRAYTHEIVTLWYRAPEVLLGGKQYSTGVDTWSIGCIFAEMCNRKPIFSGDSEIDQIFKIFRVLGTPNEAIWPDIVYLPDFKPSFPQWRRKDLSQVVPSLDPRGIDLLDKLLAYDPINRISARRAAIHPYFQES
T6 sequence (P24869 whole entry, further chain): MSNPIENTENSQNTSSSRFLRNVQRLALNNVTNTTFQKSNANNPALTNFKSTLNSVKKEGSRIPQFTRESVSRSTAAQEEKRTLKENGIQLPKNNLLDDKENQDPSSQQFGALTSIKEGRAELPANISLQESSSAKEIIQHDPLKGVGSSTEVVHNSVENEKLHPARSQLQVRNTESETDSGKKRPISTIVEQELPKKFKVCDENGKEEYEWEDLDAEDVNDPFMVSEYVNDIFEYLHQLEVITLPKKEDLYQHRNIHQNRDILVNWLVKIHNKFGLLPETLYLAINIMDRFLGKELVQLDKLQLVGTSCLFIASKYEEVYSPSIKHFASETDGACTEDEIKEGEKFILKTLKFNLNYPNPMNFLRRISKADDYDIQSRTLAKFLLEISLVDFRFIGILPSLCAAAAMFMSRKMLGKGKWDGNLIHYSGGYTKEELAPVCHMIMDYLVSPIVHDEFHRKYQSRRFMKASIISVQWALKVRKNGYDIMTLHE
Format: biochemical.

Experiment [11] addresses T2, GST-XD4. The conditions noted are these: read-out: KM for protein substrate RR-Src at saturated nucleotide.
A further experiment addresses wild-type Fyn (Homo sapiens, UniProt P06241). Nature of the experiment: Peptide phosphorylation assay, screening of inhibitors orthogonal to wild-type kinases. The conditions noted are these: read-out: IC50 for inhibition of wild-type Fyn. Format: biochemical. The text has this:
Screening of inhibitors which are orthogonal to wild-type kinases: To identify compounds that would not inhibit any existing cellular kinases, the panel of synthetic pyrazolo pyrimidine analogs (1-6) (FIG. 10) were screened against two closely related purified protein tyrosine kinases, v-Src and Fyn, in a peptide phosphorylation assay using [γ-^32P]

The mark [12] stands for this setting: GST-XD4, 1 mM RR-Src, 37° C., pH 8.0.

T4 sequence (Q05655 whole entry, species assumed): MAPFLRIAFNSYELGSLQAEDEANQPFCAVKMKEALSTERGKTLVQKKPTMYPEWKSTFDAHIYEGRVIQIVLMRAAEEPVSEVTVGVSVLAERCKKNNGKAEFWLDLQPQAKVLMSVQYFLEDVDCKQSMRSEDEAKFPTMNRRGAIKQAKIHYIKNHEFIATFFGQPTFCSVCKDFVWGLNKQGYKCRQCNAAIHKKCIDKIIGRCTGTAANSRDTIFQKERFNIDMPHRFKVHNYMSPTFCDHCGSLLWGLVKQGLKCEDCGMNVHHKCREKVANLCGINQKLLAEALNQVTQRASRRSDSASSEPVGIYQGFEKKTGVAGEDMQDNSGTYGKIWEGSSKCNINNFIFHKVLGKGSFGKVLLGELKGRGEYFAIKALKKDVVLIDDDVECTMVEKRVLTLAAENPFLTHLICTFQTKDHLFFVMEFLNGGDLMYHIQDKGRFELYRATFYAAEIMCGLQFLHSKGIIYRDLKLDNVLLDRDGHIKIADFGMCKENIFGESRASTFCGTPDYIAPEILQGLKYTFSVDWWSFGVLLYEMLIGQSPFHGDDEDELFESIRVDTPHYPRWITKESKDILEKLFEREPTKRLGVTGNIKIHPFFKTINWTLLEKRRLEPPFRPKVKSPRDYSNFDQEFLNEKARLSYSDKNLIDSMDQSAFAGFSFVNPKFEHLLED
Chain of wild-type Fyn (P06241 1-534 isoform P06241-2, species assumed): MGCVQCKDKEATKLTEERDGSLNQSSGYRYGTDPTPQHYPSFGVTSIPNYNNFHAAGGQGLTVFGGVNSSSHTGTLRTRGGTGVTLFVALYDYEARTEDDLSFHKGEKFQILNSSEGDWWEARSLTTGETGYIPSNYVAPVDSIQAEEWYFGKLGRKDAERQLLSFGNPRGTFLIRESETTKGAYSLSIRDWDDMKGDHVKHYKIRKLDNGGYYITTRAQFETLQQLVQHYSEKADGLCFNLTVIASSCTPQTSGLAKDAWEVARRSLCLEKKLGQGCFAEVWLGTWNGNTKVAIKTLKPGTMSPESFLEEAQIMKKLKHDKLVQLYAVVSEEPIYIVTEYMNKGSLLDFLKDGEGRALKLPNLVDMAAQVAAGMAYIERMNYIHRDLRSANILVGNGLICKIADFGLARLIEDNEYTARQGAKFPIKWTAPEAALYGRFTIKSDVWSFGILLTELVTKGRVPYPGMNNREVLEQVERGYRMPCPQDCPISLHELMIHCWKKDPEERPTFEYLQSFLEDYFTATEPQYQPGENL

What is called Ki is a measure of affinity in units of concentration, obtained from inhibition or displacement. For the compound `O=P(O)(O)OP(=O)(O)OP(=O)(O)OC[C@H]1O[C@@H](n2cnc3c(NC4CCCC4)ncnc32)[C@H](O)[C@@H]1O` [ATP analog 8, N^6(cyclopentyl)ATP], the “ability to serve as cellular protein tyrosine kinase substrate (level of protein tyrosine phosphorylation)” value in experiment [1] is reported as “slightly lower level of phosphorylation with wild-type kinase”. Besides, the “phosphorylation of RR-Src peptide with the nucleotide as phosphate donor” value is reported as “displayed Michaelis-Menten kinetics” at GST-XD4(V323A, I338A) [2] and “did not substantially phosphorylate the RR-Src peptiide” at GST-XD4 [6] (wild-type GST-XD4). Besides, the “use as phosphodonor for autophosphorylation” value at GST-XD4(V323A, I338A) [3] is on record as “efficiently autophosphorylated”; at GST-XD4 [7] it was “apparent complete inability of GST-XD4 to use this analog as a phosphodonor for autophosphorylation”. In addition, the “radiolabeled phosphoproteins in cell lysate” value in experiment [4] was “no radiolabeled phosphoproteins in the cell lysate”. For the same compound, in the experiment with GST-XD4(V323A, I338A) [5], the “inhibition of GST-XD4(V323A, I338A) catalyzed RR-Src phosphorylation” value was “almost as well as the wild-type kinase, GST-XD4, is inhibited by its natural substrate ATP”. On GST-XD4 [6], this compound came in with an inhibitory constant (Ki) of 2000 µM.
Consider `CC(C)(C)c1ccc(C(=O)Nc2ncnc3c2c(-c2ccccc2)nn3C(C)(C)C)cc1` [Compound 3g, 4-(p-tert-butyl)benzamido-1-tert-butyl-3-phenylpyrazolo[3,4-d]pyrimidine], for which the “mode of inhibition of I338G v-Src” value at I338G v-Src (Lineweaver-Burk analysis) is listed as “competitively with respect to ATP”. Also, the Ki on I338G v-Src (Lineweaver-Burk analysis at various ATP concentrations, read-out: inhibitory constant (Ki), I338G v-Src) is about 0.4 µM. For the same compound, the “inhibition of PKCd” value at PKCd is listed as “not detectably inhibited”. Besides, the “inhibition of PKA” value on PKA is recorded as “not detectably inhibited”. Further, the “phosphotyrosine pattern of B cell stimulation” value in experiment [8] is “no effect on the phosphotyrosine pattern of B cell stimulation”. Further, the tyrosine phosphorylation result in experiment [9] is recorded as “but not WT v-Src transformed NIH3T3 fibroblasts; also recorded: causes no loss of tyrosine phosphorylation”. The “cell morphology and polymerized actin” value in [10] was “appeared flat and did not exhibit growth characteristics of transformed cells; also recorded: have defined polymerized actin strings”.
For orientation: Km means the substrate concentration at which the rate is half of its maximum. By kcat is commonly meant the maximal rate divided by the concentration of active sites. As for `Nc1ncnc2c1ncn2[C@@H]1O[C@H](COP(=O)(O)OP(=O)(O)OP(=O)(O)O)[C@@H](O)[C@H]1O` [ATP, adenosine triphosphate], on Cdc28-as1 · MBP-Clb2, the “reduction in binding affinity for ATP relative to wild-type Cdc28” value was 10 fold and the “reduction in maximum ATP turnover rate relative to wild-type Cdc28” value is listed as 6 fold. For the same compound, the Km at GST-XD4 [11] is 2600 ± 900 µM. Also, at GST-XD4 [6] (setting [12]), the Km worked out at 12 ± 3 µM and the kcat was determined as 0.033 ± 0.0083 s⁻¹.
Broadly, the IC50 is the concentration needed to halve the response being measured. For `CC(C)(C)n1nc(-c2ccccc2)c2c(NC(=O)c3ccccc3)ncnc21` [Compound 3e, 4-benzamido-1-tert-butyl-3-phenylpyrazolo[3,4-d]pyrimidine], the concentration for half-maximal inhibition (IC50) on wild-type Fyn is over 400 µM.
